Source: PMC2909581 (Clinical cancer research : an official journal of the …, 2010)

Assay: Phase I toxicity assessment
[1] = number of patients, tanespimycin 300 mg/m^2 (n = 3) + sorafenib
[2] = number of patients, tanespimycin 350 mg/m^2 (n = 7) + sorafenib
[3] = number of patients, tanespimycin 400 mg/m^2 (n = 11) + sorafenib
[4] = number of patients, tanespimycin 450 mg/m^2 (n = 6) + sorafenib

With `C=CCNC1=C2C[C@@H](C)C[C@H](OC)[C@H](O)[C@@H](C)/C=C(\C)[C@H](OC(N)=O)[C@@H](OC)/C=C\C=C(/C)C(=O)NC(=CC1=O)C2=O` [tanespimycin, 17-demethoxy-allylaminogeldanamycin] the “patients with treatment interruptions” value (human, in vivo) was 2 patients, the “recommended phase II dose” value (in combination with sorafenib, intravenous, days 1, 8 and 15 every 28 days) was 400 mg/m^2 and the “Diarrhea Grade1” value [1] was 1. For the same compound, the “Diarrhea Grade2” value [1] was 1, the “Diarrhea Grade3” value [1] was 0 and the “Diarrhea Grade4” value [1] was 0. For the same compound, the “Fatigue Grade1” value [1] was 3, the “Fatigue Grade2” value [1] was 0 and the “Fatigue Grade3” value [1] was 0. For the same compound, the “Fatigue Grade4” value [1] was 0, the “Hand-Foot syndrome Grade1” value [1] was 1 and the “Hand-Foot syndrome Grade2” value [1] was 0. The “Hand-Foot syndrome Grade3” value [1] was 0, the “Hand-Foot syndrome Grade4” value [1] was 0 and the “Headache Grade1” value [1] was 1. The “Headache Grade2” value [1] was 0, the “Headache Grade3” value [1] was 0 and the “Headache Grade4” value [1] was 0. For the same compound, the “Liver function abnormality Grade1” value [1] was 0, the “Liver function abnormality Grade2” value [1] was 1 and the “Liver function abnormality Grade3” value [1] was 0. For the same compound, the “Liver function abnormality Grade4” value [1] was 0, the “Nausea Grade1” value [1] was 1 and the “Nausea Grade2” value [1] was 0. For the same compound, the “Nausea Grade3” value [1] was 0, the “Nausea Grade4” value [1] was 0 and the “Other toxicity Grade1” value [1] was 0. For the same compound, the “Other toxicity Grade2” value [1] was 3, the “Other toxicity Grade3” value [1] was 0 and the “Other toxicity Grade4” value [1] was 0. The “Bleeding Grade1” value [2] was 1, the “Bleeding Grade2” value [2] was 1 and the “Bleeding Grade3” value [2] was 0. For the same compound, the “Bleeding Grade4” value [2] was 0, the “Creatinine Grade1” value [2] was 1 and the “Creatinine Grade2” value [2] was 1. For the same compound, the “Creatinine Grade3” value [2] was 0, the “Creatinine Grade4” value [2] was 0 and the “Diarrhea Grade1” value [2] was 3. The “Diarrhea Grade2” value [2] was 1, the “Diarrhea Grade3” value [2] was 1 and the “Diarrhea Grade4” value [2] was 0. The “Emesis Grade1” value [2] was 2, the “Emesis Grade2” value [2] was 3 and the “Emesis Grade3” value [2] was 1. For the same compound, the “Emesis Grade4” value [2] was 0, the “Fatigue Grade1” value [2] was 2 and the “Fatigue Grade2” value [2] was 0. For the same compound, the “Fatigue Grade3” value [2] was 0, the “Fatigue Grade4” value [2] was 0 and the “Hand-Foot syndrome Grade1” value [2] was 0. For the same compound, the “Hand-Foot syndrome Grade2” value [2] was 2, the “Hand-Foot syndrome Grade3” value [2] was 0 and the “Hand-Foot syndrome Grade4” value [2] was 0. The “Headache Grade1” value [2] was 1, the “Headache Grade2” value [2] was 1 and the “Headache Grade3” value [2] was 0. For the same compound, the “Headache Grade4” value [2] was 0, the “Hemoglobin Grade1” value [2] was 1 and the “Hemoglobin Grade2” value [2] was 0. For the same compound, the “Hemoglobin Grade3” value [2] was 0, the “Hemoglobin Grade4” value [2] was 0 and the “Liver function abnormality Grade1” value [2] was 2. For the same compound, the “Liver function abnormality Grade2” value [2] was 0, the “Liver function abnormality Grade3” value [2] was 0 and the “Liver function abnormality Grade4” value [2] was 0. For the same compound, the “Myalgias Grade1” value [2] was 1, the “Myalgias Grade2” value [2] was 0 and the “Myalgias Grade3” value [2] was 0. For the same compound, the “Myalgias Grade4” value [2] was 0, the “Nausea Grade1” value [2] was 3 and the “Nausea Grade2” value [2] was 2. The “Nausea Grade3” value [2] was 0, the “Nausea Grade4” value [2] was 0 and the “Other toxicity Grade1” value [2] was 5. The “Other toxicity Grade2” value [2] was 1, the “Other toxicity Grade3” value [2] was 1 and the “Other toxicity Grade4” value [2] was 0. The “Platelets Grade1” value [2] was 1, the “Platelets Grade2” value [2] was 0 and the “Platelets Grade3” value [2] was 0. The “Platelets Grade4” value [2] was 0, the “Creatinine Grade1” value [3] was 0 and the “Creatinine Grade2” value [3] was 1. For the same compound, the “Creatinine Grade3” value [3] was 0, the “Creatinine Grade4” value [3] was 0 and the “Diarrhea Grade1” value [3] was 1. The “Diarrhea Grade2” value [3] was 1, the “Diarrhea Grade3” value [3] was 0 and the “Diarrhea Grade4” value [3] was 0. The “Dyspnea Grade1” value [3] was 0, the “Dyspnea Grade2” value [3] was 0 and the “Dyspnea Grade3” value [3] was 1. The “Dyspnea Grade4” value [3] was 1, the “Emesis Grade2” value [3] was 0 and the “Emesis Grade3” value [3] was 0. For the same compound, the “Emesis Grade4” value [3] was 0, the “Fatigue Grade2” value [3] was 2 and the “Fatigue Grade3” value [3] was 1. The “Fatigue Grade4” value [3] was 0, the “Hand-Foot syndrome Grade1” value [3] was 0 and the “Hand-Foot syndrome Grade2” value [3] was 3. For the same compound, the “Hand-Foot syndrome Grade3” value [3] was 2, the “Hand-Foot syndrome Grade4” value [3] was 0 and the “Headache Grade1” value [3] was 1. The “Headache Grade2” value [3] was 0, the “Headache Grade3” value [3] was 0 and the “Headache Grade4” value [3] was 0. For the same compound, the “Hemoglobin Grade1” value [3] was 2, the “Hemoglobin Grade2” value [3] was 1 and the “Hemoglobin Grade3” value [3] was 0. The “Hemoglobin Grade4” value [3] was 0, the “Infection Grade1” value [3] was 0 and the “Infection Grade2” value [3] was 1. The “Infection Grade3” value [3] was 0, the “Infection Grade4” value [3] was 0 and the “Liver function abnormality Grade1” value [3] was 1. For the same compound, the “Liver function abnormality Grade2” value [3] was 0, the “Liver function abnormality Grade3” value [3] was 0 and the “Liver function abnormality Grade4” value [3] was 0. The “Myalgias Grade1” value [3] was 1, the “Myalgias Grade2” value [3] was 0 and the “Myalgias Grade3” value [3] was 0. The “Myalgias Grade4” value [3] was 0, the “Nausea Grade1” value [3] was 6 and the “Nausea Grade2” value [3] was 1. For the same compound, the “Nausea Grade3” value [3] was 1, the “Nausea Grade4” value [3] was 0 and the “Neutropenia Grade1” value [3] was 0. For the same compound, the “Neutropenia Grade2” value [3] was 0, the “Neutropenia Grade3” value [3] was 1 and the “Neutropenia Grade4” value [3] was 0. The “Other toxicity Grade1” value [3] was 3, the “Other toxicity Grade2” value [3] was 3 and the “Other toxicity Grade3” value [3] was 2. The “Other toxicity Grade4” value [3] was 0, the “Platelets Grade1” value [3] was 2 and the “Platelets Grade2” value [3] was 0. For the same compound, the “Platelets Grade3” value [3] was 0, the “Platelets Grade4” value [3] was 0 and the “Abdominal pain Grade1” value [4] was 2. The “Abdominal pain Grade2” value [4] was 0, the “Abdominal pain Grade3” value [4] was 1 and the “Abdominal pain Grade4” value [4] was 0. The “Diarrhea Grade1” value [4] was 2, the “Diarrhea Grade2” value [4] was 0 and the “Diarrhea Grade3” value [4] was 1. The “Diarrhea Grade4” value [4] was 0, the “Emesis Grade1” value [4] was 1 and the “Emesis Grade2” value [4] was 0. The “Emesis Grade3” value [4] was 0, the “Emesis Grade4” value [4] was 0 and the “Fatigue Grade1” value [4] was 4. The “Fatigue Grade2” value [4] was 1, the “Fatigue Grade3” value [4] was 0 and the “Fatigue Grade4” value [4] was 0. For the same compound, the “Hand-Foot syndrome Grade1” value [4] was 1, the “Hand-Foot syndrome Grade2” value [4] was 1 and the “Hand-Foot syndrome Grade3” value [4] was 2. For the same compound, the “Hand-Foot syndrome Grade4” value [4] was 0, the “Headache Grade1” value [4] was 2 and the “Headache Grade2” value [4] was 0. The “Headache Grade3” value [4] was 0, the “Headache Grade4” value [4] was 0 and the “Hemoglobin Grade1” value [4] was 1. For the same compound, the “Hemoglobin Grade2” value [4] was 0, the “Hemoglobin Grade3” value [4] was 0 and the “Hemoglobin Grade4” value [4] was 0. The “Hypertension Grade1” value [4] was 0, the “Hypertension Grade2” value [4] was 1 and the “Hypertension Grade3” value [4] was 0. The “Hypertension Grade4” value [4] was 0, the “Infection Grade1” value [4] was 0 and the “Infection Grade2” value [4] was 0. The “Infection Grade3” value [4] was 1, the “Infection Grade4” value [4] was 0 and the “Liver function abnormality Grade1” value [4] was 0. The “Liver function abnormality Grade2” value [4] was 0, the “Liver function abnormality Grade3” value [4] was 0 and the “Liver function abnormality Grade4” value [4] was 1. For the same compound, the “Myalgias Grade1” value [4] was 1, the “Myalgias Grade2” value [4] was 0 and the “Myalgias Grade3” value [4] was 0. For the same compound, the “Myalgias Grade4” value [4] was 0, the “Nausea Grade1” value [4] was 4 and the “Nausea Grade2” value [4] was 0. For the same compound, the “Nausea Grade3” value [4] was 0, the “Nausea Grade4” value [4] was 0 and the “Other toxicity Grade1” value [4] was 3. The “Other toxicity Grade2” value [4] was 0, the “Other toxicity Grade3” value [4] was 1 and the “Other toxicity Grade4” value [4] was 0. The “Platelets Grade1” value [4] was 0, the “Platelets Grade2” value [4] was 0 and the “Platelets Grade3” value [4] was 1. For the same compound, the “Platelets Grade4” value [4] was 0 and the “patients requiring dose modifications” value (sorafenib to 400 mg once daily, tanespimycin to one dose level lower) was 4 patients.
